Assay results reported in patent EP0326331B1, “Substituted quinolines and cinnolines” (Dow AgroSciences LLC, priority 1988, dated 1989).
Where two headings read alike, the source gives them in different places.

How the values were obtained:
Assay type in all cases: in vivo
[1] = test system: Erysiphe graminis tritici (powdery mildew); experiment: Test 1 greenhouse foliar spray screen, powdery mildew on wheat; conditions: disease control rating, foliar spray on wheat, 400 ppm (+++ at 100 ppm)
[2] = test system: Pyricularia oryzae (rice blast); experiment: whole plant or invertebrate; conditions: disease control rating, foliar spray on rice, 400 ppm (+++ at 100 ppm)
[3] = test system: Puccinia recondita tritici (leaf rust); experiment: Test 1 greenhouse foliar spray screen, leaf rust on wheat; conditions: disease control rating, foliar spray on wheat, 400 ppm (+++ at 100 ppm)
[4] = test system: Botrytis cinerea (gray mold); experiment: Test 1 greenhouse foliar spray screen, gray mold on grape berries; conditions: disease control rating, spray on grape berries, 400 ppm (+++ at 100 ppm)
[5] = test system: Pseudoperonospora cubensis (downy mildew); experiment: Test 1 greenhouse foliar spray screen, downy mildew on squash; conditions: for DOWN MDEW: disease control rating, foliar spray on squash, 400 ppm (+++ at 100 ppm)
[6] = test system: Cercospora beticola (leaf spot); experiment: Test 1 greenhouse foliar spray screen, leaf spot on sugar beet; conditions: disease control rating, foliar spray on sugar beet, 400 ppm (+++ at 100 ppm)
[7] = test system: Venturia inaequalis (apple scab); experiment: Test 1 greenhouse foliar spray screen, apple scab on apple seedling; conditions: disease control rating, foliar spray on apple seedling, 400 ppm (+++ at 100 ppm)
[8] = test system: Septoria tritici (leaf blotch); experiment: Test 1 greenhouse foliar spray screen, leaf blotch on wheat; conditions: disease control rating, foliar spray on wheat, 400 ppm (+++ at 100 ppm)
[9] = test system: southern armyworm (Spodopetra eridania Cramer); experiment: Mite/insect screen, SAW; conditions: percent mortality; for mortality at 200 ppm / mortality at 400 ppm: Spodoptera eridania, read-out: SAW RESULTS %; for mortality at 400 ppm: SM & MA RATE 400 PPM
In short: (§1)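 Compounds dissolved in acetone/alcohol (50:50) with TOXIMUL R and S emulsifiers, diluted in water to test concentrations, and sprayed to runoff on both leaf surfaces at 10 psi, then dried 1 h. For armyworm, excised treated leaves were offered to larvae; percent mortality scored after standard exposure periods.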

[10] = test system: Twospotted spider mites (Tetranychus urticae Koch); experiment: Mite/insect screen, SM; conditions: for mortality at 200 ppm / mortality at 400 ppm: Tetranychus urticae, read-out: SM RESULTS %; for mortality at 200 ppm / mortality at 400 ppm / SM RESULTS %: percent mortality; for mortality at 400 ppm: SM & MA RATE 400 PPM
In short: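 Compounds dissolved in 50:50 acetone/alcohol containing sulfonate/nonionic emulsifier blends, then diluted with water to the indicated concentrations. Leaves sprayed on both surfaces to runoff at 10 psi and dried one hour. Percent mortality scored after standard exposure periods.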

[11] = test system: melon aphids (Aphis gossypii Glover); experiment: Mite/insect screen, MA; conditions: percent mortality; for mortality at 200 ppm / mortality at 400 ppm: Aphis gossypii, read-out: MA RESULTS %; for mortality at 400 ppm: SM & MA RATE 400 PPM
In short: as §1

[12] = test system: corn rootworm; experiment: Mite/insect screen, CRW; conditions: percent mortality; for mortality at 12 ppm / mortality at 24 ppm: read-out: CRW RESULTS %; for mortality at 24 ppm: CRW RATE 24.00 PPM
In short: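 Compounds dissolved in 50:50 acetone/alcohol with TOXIMUL R and S emulsifiers (23 and 13 g/L), then diluted in water to the stated test concentrations. Percent mortality of corn rootworm scored after standard exposure periods.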

[13] = summary statement in the description
[14] = foliar, rate 200 ppm, foliar spray on squash

SMILES	POWD MDEW [1]	RICE BLAST [2]	LEAF RUST [3]	GRAY MOLD [4]	DOWN MDEW [5]	LEAF SPOT [6]	APPL SCAB [7]	LEAF BLOT [8]	mortality at 200 ppm ([9]; SAW, SM & MA RATE 200 PPM)	mortality at 200 ppm ([10]; SAW, SM & MA RATE 200 PPM)	mortality at 200 ppm ([11]; SAW, SM & MA RATE 200 PPM)	mortality at 12 ppm ([12]; CRW RATE 12.00 PPM)	SM RESULTS % ([10]; SAW, SM & MA RATE 200 PPM)	MA RESULTS % ([11]; SAW, SM & MA RATE 200 PPM)	other results
Fc1cc(F)c2nccc(NCCc3ccccc3)c2c1 [Example 7, 6,8-difluoro-N-(2-phenylethyl)-4-quinolinamine]	+ (20-89% control at 400 ppm)	+ (20-89% control at 400 ppm)	+++ (90-100% control at 100 ppm)	- (0-19% control at 400 ppm)	+++ (90-100% control at 100 ppm)	- (0-19% control at 400 ppm)	- (0-19% control at 400 ppm)	+++ (90-100% control at 100 ppm)	0%	0%	0%	0%			
Fc1ccc2c(NCCc3ccccc3)ccnc2c1 [Example 8, 7-fluoro-N-(2-phenylethyl)-4-quinolinamine]	+ (20-89% control at 400 ppm)	++ (90-100% control at 400 ppm)	+ (20-89% control at 400 ppm)	- (0-19% control at 400 ppm)	+++ (90-100% control at 100 ppm)	+++ (90-100% control at 100 ppm)	- (0-19% control at 400 ppm)	+ (20-89% control at 400 ppm)	100%	0%	0%	0%			
Fc1ccc2nccc(NCCc3ccccc3)c2c1 [Example 9, 6-fluoro-N-(2-phenylethyl)-4-quinolinamine]	+ (20-89% control at 400 ppm)	+ (20-89% control at 400 ppm)	+ (20-89% control at 400 ppm)	- (0-19% control at 400 ppm)	+++ (90-100% control at 100 ppm)	- (0-19% control at 400 ppm)	- (0-19% control at 400 ppm)	- (0-19% control at 400 ppm)	0%	0%	0%	0%			
Fc1cccc2c(NCCc3ccc(I)cc3)ccnc12 [Example 11, 8-fluoro-N-[2-(4-iodophenyl)ethyl]-4-quinolinamine]	- (0-19% control at 400 ppm)	++ (90-100% control at 400 ppm)	+++ (90-100% control at 100 ppm)	- (0-19% control at 400 ppm)	++ (90-100% control at 400 ppm)	+++ (90-100% control at 100 ppm)	- (0-19% control at 400 ppm)	- (0-19% control at 400 ppm)	80%	0%	0%	0%			mortality at 400 ppm ([9]; SAW): 100%; mortality at 400 ppm ([10]; SAW): 0%; activity as miticides [10, 13]: particularly excellent activity; mortality at 400 ppm ([11]; SAW): 0%; mortality at 24 ppm [12]: 60%
Fc1cc(F)c2nccc(NCCc3ccc(Br)cc3)c2c1 [Example 12, N-[2-(4-bromophenyl)ethyl]-6,8-difluoro-4-quinolinamine]	+ (20-89% control at 400 ppm)	++ (90-100% control at 400 ppm)	+++ (90-100% control at 100 ppm)	- (0-19% control at 400 ppm)	++ (90-100% control at 400 ppm)	+++ (90-100% control at 100 ppm)	- (0-19% control at 400 ppm)	++ (90-100% control at 400 ppm)	0%	0%	0%	0%			mortality at 400 ppm ([9]; SAW): 100%; mortality at 400 ppm ([10]; SAW): 0%; mortality at 400 ppm ([11]; SAW): 0%; mortality at 24 ppm [12]: 40%
Clc1cccc2c(NCCc3ccccc3)ccnc12 [Example 33, 8-chloro-N-(2-phenylethyl)-4-quinolinamine]	- (0-19% control at 400 ppm)	+ (20-89% control at 400 ppm)	+ (20-89% control at 400 ppm)	- (0-19% control at 400 ppm)	+++ (90-100% control at 100 ppm)		- (0-19% control at 400 ppm)	- (0-19% control at 400 ppm)	0%	0%	0%	0%			activity against downy mildew [5, 13]: particularly excellent activity
Cc1ccc(CCNc2ccnc3c(F)cccc23)cc1 [Example 71, 8-fluoro-N-[2-(4-methylphenyl)ethyl]-4-quinolinamine]	+ (20-89% control at 400 ppm)	+ (20-89% control at 400 ppm)	+++ (90-100% control at 100 ppm)	- (0-19% control at 400 ppm)	+++ (90-100% control at 100 ppm)	+++ (90-100% control at 100 ppm)	- (0-19% control at 400 ppm)	+ (20-89% control at 400 ppm)	0%	0%	0%		0%	0%	SAW RESULTS % ([9]; SAW, SM & MA RATE 200 PPM): 0%
Fc1cccc2c(NCCc3cccc(Cl)c3)ccnc12 [Example 74, N-[2-(3-chlorophenyl)ethyl]-8-fluoro-4-quinolinamine]	+ (20-89% control at 400 ppm)	+ (20-89% control at 400 ppm)	+++ (90-100% control at 100 ppm)	- (0-19% control at 400 ppm)	+++ (90-100% control at 100 ppm)	+++ (90-100% control at 100 ppm)	- (0-19% control at 400 ppm)	- (0-19% control at 400 ppm)		0%	0%	0%	0%	0%	CRW RESULTS % ([12]; CRW RATE 12.00 PPM): 0%
CC(CNc1ccnc2c(F)cccc12)c1ccc(Cl)cc1 (centres unmarked) [Example 79, N-[2-(4-chlorophenyl)propyl]-8-fluoro-4-quinolinamine]	+ (20-89% control at 400 ppm)	++ (90-100% control at 400 ppm)	++ (90-100% control at 400 ppm)	- (0-19% control at 400 ppm)	+++ (90-100% control at 100 ppm)	+++ (90-100% control at 100 ppm)	- (0-19% control at 400 ppm)	+ (20-89% control at 400 ppm)		0%	0%	0%	0%	0%	CRW RESULTS % ([12]; CRW RATE 12.00 PPM): 0%
c1ccc(CCNc2cc(NCCc3ccccc3)c3ccccc3n2)cc1 [Example 181, N,N'-bis(2-phenylethyl)-2,4-quinolinediamine]	+ (20-89% control at 400 ppm)	+ (20-89% control at 400 ppm)	+ (20-89% control at 400 ppm)	- (0-19% control at 400 ppm)	+++ (90-100% control at 100 ppm)		- (0-19% control at 400 ppm)	- (0-19% control at 400 ppm)							mortality at 200 ppm [9, 14]: 0%; mortality at 200 ppm [10, 14]: 0%; mortality at 200 ppm [11, 14]: 0%; mortality at 12 ppm ([12]; CRW rate 12.00 ppm): 0%
